For series [1], the system named is CDC7, LMNB2, MAD2L1 and CUL5. Put plainly: Western blot analysis. The conditions noted are these: HCT116DICER^ex5 cells, 10 nM, data not shown. Type of series: cell-based, human. The protocol: HCT116DICER^ex5 cells were transfected with 10 nM siRNA against luciferase or 10 nM miR-192 or 10 nM miR-192 mutant, and lysates were prepared at 28 hours or 48 hours post-transfection. For immunoblotting, 30 μg of whole cell lysate extracted in a modified RIPA buffer (150 mM NaCl, 50 mM Tris pH 7.4, 1 mM EDTA, 1% NP-40, 0.1% SDS) was used per sample. CDC7, LMNB2, MAD2L1 and CUL5 were detected by Western blot using anti-CDC7 (sc-56275, Santa Cruz Biotechnology Inc.), anti-LMNB2 (MAB3536, Millipore), anti-MAD2L1 (ab55452, Abcam) and anti-CUL5 (Invitrogen) antibodies, and protein levels were compared to the level of β-actin expression as detected by an anti-β-actin antibody (Abcam).
(In general: Immunoblotting shows a protein as a band on a membrane.)

Another series concerns HCT116DICER^ex5 cells. As to the kind of experiment: Phospho-histone H3 immunostaining, flow cytometry (M-phase), nocodazole-treated. Particulars: phospho-histone-H3 positive, 10 nM duplex. Type of series: cell-based, human. The protocol:
At 48 hours post transfection, cells were left untreated, treated with nocodazole (100 ng/mL, Sigma-Aldrich), or treated with aphidicolin (2 μg/mL, Sigma-Aldrich) for an additional 18 hours before harvesting. The cells were then trypsinized, collected, fixed and stained with a propidium iodide solution. BrdU-labeling was performed according to the manufacturer's instructions (BD-Pharmigen). For phospho-histone H3 analysis, cells were fixed and permeabilized with IPF buffer (100 mM PIPES pH 6.8, 10 mM EDTA, 1 mM MgCl2, 0.2% Triton X-100, 4% formaldehyde) and stained with propidium iodide and anti-phospho-histone H3 antibody conjugated to Alexa-488 (Cell Signaling Technology). The cells were analyzed using a FACSCalibur flow cytometer (Beacton Dickinson) and FlowJo software (Tree Star, Inc.).
Nocodazole-treated mock transfected and miR-192 transfected cells were also permeabilized, immunostained for phospho-histone-H3 (a mitotic marker) and sorted for DNA content and the respective accumulation of positively stained cells in the mitotic compartment was quantified. It was determined that the percentage of cells in M-phase in the mock transfected population was 40.9%, whereas the percentage of cells in M-phase in the miR-192 transfected population was 4.9%.
Background: In flow cytometry, cells or beads pass a laser one at a time.

Turning to “miR-192: Synthetic duplex mimetic of miR-192, guide CUGACCUAUGAAUUGACAGCC (SEQ ID NO:1), passenger SEQ ID NO:7 (sense CUGUCAAUUCAUCGGUCUGAU; listed as RNA, chemistry not given here; listed as Homo sapiens)”, in series [1], the protein level entry was “downregulated”. Moreover, the “percentage of cells in M-phase” value in the series on HCT116DICER^ex5 cells was 4.9%.

(Values after patent US20110118337A1, “Method of Using Compositions Comprising MIR-192 and/or MIR-215 for the Treatment of Cancer” (Merck Sharp & Dohme Corp., priority 2008, published 2011).)
